From ChEMBL document CHEMBL1146018, “The design and synthesis of a tricyclic single-nitrogen scaffold that serves as a 5-HT2C receptor agonist” (Bioorg Med Chem Lett, 2006)
Active and inactive are the calls of the source. The rule behind the calls is not given here.

Legend:
[1] = target: T1, 5-hydroxytryptamine receptor 2C (Homo sapiens, UniProt P28335); experiment: Binding affinity to 5HT2C
T1 sequence (P28335 whole entry): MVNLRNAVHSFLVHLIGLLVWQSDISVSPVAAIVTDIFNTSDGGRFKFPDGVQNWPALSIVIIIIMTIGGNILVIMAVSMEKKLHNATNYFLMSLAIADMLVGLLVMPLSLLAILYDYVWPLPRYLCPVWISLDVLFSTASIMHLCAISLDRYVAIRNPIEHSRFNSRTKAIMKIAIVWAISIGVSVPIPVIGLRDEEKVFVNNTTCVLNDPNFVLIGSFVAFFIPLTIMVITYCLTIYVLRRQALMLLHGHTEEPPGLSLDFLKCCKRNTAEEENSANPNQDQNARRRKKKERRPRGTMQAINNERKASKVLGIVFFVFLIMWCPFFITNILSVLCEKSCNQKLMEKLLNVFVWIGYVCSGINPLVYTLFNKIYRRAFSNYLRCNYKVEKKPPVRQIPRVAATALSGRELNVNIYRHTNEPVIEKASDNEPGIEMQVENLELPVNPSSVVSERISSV

[2] = target: Serotonin receptor (2b and 2c) (Homo sapiens) (UniProt P41595+P28335); experiment: Selectivity for 5HT2C over 5HT2B; type: protein assay
[3] = target: Serotonin 2 receptors; 5-HT2a & 5-HT2c (Homo sapiens) (UniProt P28223+P28335); experiment: Selectivity for 5HT2C over 5HT2A; type: protein assay
[4] = Half life in dog at 1.0 mg/kg, iv; type: ADME, organism-based, Canis lupus familiaris; parameters: dose 1 mg/kg, route intravenous; conditions: in vivo
Rattus norvegicus [5] = experiment: Reduction of food intake in rat at 20 mg/kg, ip after 24 hrs; type: functional, organism-based; parameters: dose 20 mg/kg
[6] = target: T1, 5-hydroxytryptamine receptor 2C; experiment: […] of 5HT2C assessed as intracellular calcium concentration; type: functional, cell-based
Rattus norvegicus [7] = experiment: Reduction of food intake in ip dosed rat; type: functional, organism-based
Rattus norvegicus [8] = experiment: Reduction of food intake in rat at 10 mg/kg, ip after 4 hrs; type: functional, organism-based; parameters: dose 10 mg/kg
[9] = Oral bioavailability in rat at 10.6 mg/kg, po; type: ADME, organism-based; conditions: in vivo
[10] = Clearance in dog at 1.0 mg/kg, iv; type: ADME, organism-based, Canis lupus familiaris; parameters: dose 1 mg/kg, route intravenous; conditions: in vivo
[11] = Ratio of drug level in brain against plasma measured as AUC cortex/AUC plasma at 1.2 mg/kg, iv; type: ADME, organism-based; parameters: dose 1.2 mg/kg, route intravenous; conditions: rat, read-out: BPR
[12] = Oral bioavailability in dog at 10.6 mg/kg, po; type: ADME, organism-based, Canis lupus familiaris; conditions: in vivo
[13] = Clearance in rat at 1.2 mg/kg, iv; type: ADME, organism-based; parameters: dose 1.2 mg/kg, route intravenous; conditions: in vivo
[14] = Half life in rat at 1.2 mg/kg, iv; type: ADME, organism-based; parameters: dose 1.2 mg/kg, route intravenous; conditions: in vivo

Serotonin 2 receptors; 5-HT2a & 5-HT2c (Homo sapiens), sequence (P28223 whole entry, looked up, one chain of several): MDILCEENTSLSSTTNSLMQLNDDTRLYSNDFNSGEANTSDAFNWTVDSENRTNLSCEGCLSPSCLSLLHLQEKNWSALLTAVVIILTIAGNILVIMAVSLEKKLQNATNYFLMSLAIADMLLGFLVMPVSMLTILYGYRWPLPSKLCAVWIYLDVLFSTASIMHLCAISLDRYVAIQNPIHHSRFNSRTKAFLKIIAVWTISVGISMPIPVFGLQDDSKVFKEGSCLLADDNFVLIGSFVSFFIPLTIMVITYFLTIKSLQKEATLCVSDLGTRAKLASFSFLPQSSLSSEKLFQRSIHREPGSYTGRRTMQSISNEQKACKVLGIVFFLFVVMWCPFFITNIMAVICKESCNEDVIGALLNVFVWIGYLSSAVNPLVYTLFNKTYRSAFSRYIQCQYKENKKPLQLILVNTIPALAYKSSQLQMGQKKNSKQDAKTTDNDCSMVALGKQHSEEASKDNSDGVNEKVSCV

`Cc1cc2c(cc1Cl)[C@H]1CNC[C@H]1[C@H]2C` gave a Ki [1] of 134 nM, a Selectivity ratio [2] of 14 and a Selectivity ratio [3] of 11.
`CC1c2cc(Cl)c(Cl)cc2[C@H]2CNC[C@@H]12` (mixture of isomers) showed a Ki [1] of 103 nM.
`C[C@@H]1c2cc(Cl)c(Cl)cc2[C@H]2CNC[C@@H]12` gave a Ki [1] of 1140 nM, a Selectivity ratio [2] of 3 and a Selectivity ratio [3] of 2.
With `Cc1ccc2c(c1)C(C)[C@@H]1CNC[C@H]21` (mixture of isomers) the Ki [1] was 1700 nM.
Compound `Cc1cc2c(cc1Cl)[C@H]1CNC[C@H]1C2C` (mixture of isomers) has a Ki [1] of 465 nM.
`Cc1cc2c(cc1Br)C(C)[C@@H]1CNC[C@H]21` (mixture of isomers) showed a Ki [1] of 463 nM.
Work on `Cc1cccc2c1[C@H]1CNC[C@H]1C2C` (mixture of isomers) yielded a Ki [1] of 1850 nM.
For `Cc1cc2c(cc1Cl)C(C)[C@@H]1CNC[C@H]21` (mixture of isomers), the Ki [1] was 107 nM.
Compound `Cc1cc2c(cc1Cl)[C@H](C)[C@@H]1CNC[C@H]21` has a Ki [1] of 155 nM, a Selectivity ratio [2] of 32 and a Selectivity ratio [3] of 8.
With `Cc1cccc2c1C(C)[C@@H]1CNC[C@H]21` (mixture of isomers) the Ki [1] was 3380 nM.
Compound `COc1cc2c(cc1Br)[C@H](C)[C@@H]1CNC[C@H]21` has a Ki [1] of 27 nM, a Selectivity ratio [2] of 81 and a Selectivity ratio [3] of 12.
With `COc1cc2c(cc1Cl)[C@H](C)[C@@H]1CNC[C@H]21` the half-life [4] was 3.5 h, the Activity (Rattus norvegicus [5]) was “Active” and the EC50 [6] was 6 nM. For the same compound, the Activity (Rattus norvegicus [7]) was “Dose-dependent effect”, the Activity (Rattus norvegicus [8]) was “Active” and the bioavailability [9] was 40%. For the same compound, the Ki [1] was 14 nM, the clearance [10] was 39 mL/min/kg and the Kp [11] was 15. For the same compound, the bioavailability [12] was 80%, the Selectivity ratio [2] was 235 and the Selectivity ratio [3] was 73. For the same compound, the clearance [13] was 31 mL/min/kg and the half-life [14] was 1.8 h.
Compound `Cc1cc2c(cc1Br)[C@H]1CNC[C@H]1C2C` (mixture of isomers) has a Ki [1] of 207 nM.
For `C[C@H]1c2cc(Cl)ccc2[C@H]2CNC[C@H]21`, the EC50 [6] was 54 nM, the Ki [1] was 911 nM and the Selectivity ratio [2] was 132. It also gave a Selectivity ratio [3] of 56.
Work on `CC1c2cc(F)ccc2[C@H]2CNC[C@@H]12` (mixture of isomers) yielded a Ki [1] greater than 10000 nM.
Compound `COc1cc2c(cc1Cl)C(C)[C@@H]1CNC[C@H]21` (mixture of isomers) has a Ki [1] of 530 nM.
Compound `C[C@H]1c2cc(Cl)c(O)cc2[C@H]2CNC[C@H]21` has a Ki [1] of 27 nM, a Selectivity ratio [2] of 63 and a Selectivity ratio [3] of 27.
With `C[C@H]1c2cc(Cl)c(Cl)cc2[C@H]2CNC[C@H]21` the Ki [1] was 155 nM, the Selectivity ratio [2] was 32 and the Selectivity ratio [3] was 8.
For `CCOc1cc2c(cc1Cl)[C@H](C)[C@@H]1CNC[C@H]21`, the Ki [1] was 231 nM, the Selectivity ratio [2] was 31 and the Selectivity ratio [3] was 9.
In the case of `Cc1ccc2c(c1)[C@H]1CNC[C@H]1C2C` (mixture of isomers), the Ki [1] is reported as 3310 nM.
`Clc1ccc2c(c1)C[C@@H]1CNC[C@H]21` showed an EC50 [6] of 11 nM, a Selectivity ratio [2] of 19 and a Selectivity ratio [3] of 14.
`CC1c2ccc(F)cc2[C@H]2CNC[C@@H]12` (mixture of isomers) gave a Ki [1] of 3010 nM.
Compound `C[C@H]1c2c(ccc(Cl)c2Cl)[C@H]2CNC[C@H]21` has a Ki [1] of 5 nM, a Selectivity ratio [2] of 73 and a Selectivity ratio [3] of 50.
